US20070248488A1, “METHOD AND APPARATUS FOR REDUCING MICROORGANISMS IN WATER” (VORTEX CORPORATION, priority 2006, published 2007)
“And” between values parts separate entries of the source, which are not always exact repeats. Identical values can stand only once.

How the values were obtained:
adenoviruses = details: Ct value of 0.6 mg/L min, 5° C.; cited from earlier work
[1] = tested on: Adenovirus 2 (ATCC# VR-846); experiment: Adenovirus inactivation in de-chlorinated tap water (TCID50 on PLC cells); format: cell-based; details: Initial titer 1.33 × 10^6 TCID50/ml; 2 L/minute; UV approx. 48 mJ/cm^2; ozone about 0.08 mg/L
Excerpt: It was capable of processing 2 liters per minute of water. To study the effects of UV light only, the ozone generated by the apparatus was diverted away and not injected into the water stream. The UV dose (mJ/cm^2) was previously calibrated and found to be approximately 48 mJ/cm^2 as determined by MS-2 coliphagae biodosimetry. To study the effects of ozone only, the UW lamp was shrouded with a stainless steel sleeve to prevent any water from being exposed to the UW light from lamp 14. The ozone dose was measured in all cases to be about 0.08 mg/L. To study the combination of UV light with the ozone, the ozone was injected at the base of vessel 22 via a venturi as previously described.
Log Reductions in microorganisms were calculated as follows: Log 10 Reduction=Log10[Final titer]−Log10[Initial titer]
Adenovirus 2 (ATCC# VR-846) was obtained from the American Type Culture Collection. It was maintained on PLC (Primary Liver Carcinoma, ATCC# CRL-8024) cell line monolayers with MEM (Minimal essential Medium modified with Earle's salts) containing 2$ FBS (Fetal Bovine Serum) at an incubation temperature of 35° C. with 5% CO2. Viruses were purified by centrifugation (7756×g) to remove cell debris followed by polyethylene glycol (9% PEG, 0.5 mol/L NaCl) precipitation. […]

[2] = tested on: heterotrophic plate count; details: reduced from 960 cfu/mL; raw water source for drinking water plant; cited from earlier work
[3] = tested on: Naegleria fowleri (ATCC #30462) cysts; experiment: Test for destruction of Naegleria fowleri in de-chlorinated tap water (MPN viability); format: cell-based; details: Initial titer 2.42 × 10^3 cysts/mL, 2 L/minute, UV approx. 48 mJ/cm^2, ozone about 0.08 mg/L
MS-2 coliphage = experiment: Ozone and UV disinfection of MS-2 phage in dechlorinated tap water; format: cell-based; details: Ozone Level (OR) 400 mV, exposure time 5 min; UV Dose 0 mJ/cm^2; room temperature, pH 7.6; MS-2 3.3×10^7 pfu/mL
Protocol: Propagation and assay of MS-2 coliphage was performed in accordance with Thurston-Enriquez et al. (2003a). Expected UV inactivation was derived from the work of Thurston-Enriquez et al. (2003a).
Ozone was generated by a corona discharge generator and injected into 4 L of dechlorinated tap water at room temperature and pH 7.6. The water was raised and maintained to an Oxidation Reduction Potential (OR) of 400 mV. On addition of the MS-2 to a concentration of 3.3×10^7 pfu/mL, the OR was maintained at 400 mV for five minutes. At the five minute mark, samples were drawn for MS-2 assay and the water was pumped through a UV (low pressure, high output UV lamp 14) at two gallons per minute. The UV dose was calibrated and known to be 12 mJ/cm^2. Following UV treatment, samples were taken for MS-2 assay. A duplicate trial was performed.

SMILES: O=[O+][O-] [Ozone, ozone]
- inactivation of adenoviruses (adenoviruses): more than 4 logs
- Final Titer [1]: 2.08 × 10^5 TCID50/ml
- Log10 Reduction [1]: 0.81
- heterotrophic plate count after ozone disinfection stage [2]: 680 cfu/mL
- Final Titer [3]: 473 mL⁻¹
- Log10 Reduction [3]: .071
- Log10 Reduction ([3]; listed as ozone): 0.71
- log Inactivation (MS-2 coliphage): 1 log and 1.06 log and 1.00 log
